Assay: Dissolution measurements (Distek 2100B USP 2 dissolution system, UV/Vis probe at 324 nm)
Assay type: physicochemical
Details: 1 L deionized water, 200 rpm, amount for 20 ppm Compound I
Method: Dissolution Measurements: The performance of the sucrose/Compound I co-crystallized product was compared to that of the Compound I starting material and sucrose/Compound I powder mixtures under standard conditions using a Distek 2100B USP 2 dissolution system. Sufficient amounts of each sample were added in order to create 20 ppm solutions of Compound I. These amounts were 20 mg of pure Compound I, 200 mg of the 10% mixtures, 400 mg of the 5% mixtures and 2.00 g of the 1% mixtures in 1 L of deionized water. A stirring rate of 200 rpm was used.
The concentration of Compound I in solution was monitored continuously as a function of time using a UV/Vis spectrometer probe which measured absorbance at 324 nm.

Concentration in solution (Compound I in solution at 0.083 min): −0.5 ppm
Concentration in solution (Compound I in solution at 2 min): 0.4 ppm
Concentration in solution (Compound I in solution at 5 min): 1.4 ppm
Concentration in solution (Compound I in solution at 10 min): 3.5 ppm
Concentration in solution (Compound I in solution at 25 min): 8.3 ppm
Concentration in solution (Compound I in solution at 50 min): 14.5 ppm
Concentration in solution (Compound I in solution at 100 min): 20.9 ppm
Structure (SMILES): CCCNC(=O)C(C)(C)COc1cccc2c1C(N)=NS(=O)(=O)N2 [100% Compound I, 3-(4-amino-2,2-dioxide-1H-benzo[c][1,2,6]thiadiazin-5-yloxy)-2′,2′-dimethyl-N-propylpropanamide]
